Test results published in patent publication US9394305B2, “Substituted imidazo[1,2-a]pyridine compounds as tropomyosin receptor kinase a (TrkA) inhibitors” (Dr. Reddy's Laboratories Ltd., priority 2014, dated 2016).

Molecular target: T1, TrkA kinase (Homo sapiens, UniProt P04629)
T1 construct: purchased Upstate, USA
Assay: In vitro TrkA inhibitory activity using TR-FRET assay
Format: biochemical
Details: 5 ng TrkA, 500 μM ATP, values given as bins, read-out: TrkA inhibition in-vitro IC50
Method in brief: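 TrkA kinase (5 ng) was preincubated 30 min at 20-35° C. with compound (1% DMSO final), then 40 nM ULight poly GT and 500 μM ATP were added for 30 min before an EDTA stop. Phosphorylation was detected by Eu anti-phosphotyrosine TR-FRET (ex 340, em 615/665 nm), and IC50 came from sigmoidal fits of 1/3 serial dilutions.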

T1 sequence (P04629 33-796): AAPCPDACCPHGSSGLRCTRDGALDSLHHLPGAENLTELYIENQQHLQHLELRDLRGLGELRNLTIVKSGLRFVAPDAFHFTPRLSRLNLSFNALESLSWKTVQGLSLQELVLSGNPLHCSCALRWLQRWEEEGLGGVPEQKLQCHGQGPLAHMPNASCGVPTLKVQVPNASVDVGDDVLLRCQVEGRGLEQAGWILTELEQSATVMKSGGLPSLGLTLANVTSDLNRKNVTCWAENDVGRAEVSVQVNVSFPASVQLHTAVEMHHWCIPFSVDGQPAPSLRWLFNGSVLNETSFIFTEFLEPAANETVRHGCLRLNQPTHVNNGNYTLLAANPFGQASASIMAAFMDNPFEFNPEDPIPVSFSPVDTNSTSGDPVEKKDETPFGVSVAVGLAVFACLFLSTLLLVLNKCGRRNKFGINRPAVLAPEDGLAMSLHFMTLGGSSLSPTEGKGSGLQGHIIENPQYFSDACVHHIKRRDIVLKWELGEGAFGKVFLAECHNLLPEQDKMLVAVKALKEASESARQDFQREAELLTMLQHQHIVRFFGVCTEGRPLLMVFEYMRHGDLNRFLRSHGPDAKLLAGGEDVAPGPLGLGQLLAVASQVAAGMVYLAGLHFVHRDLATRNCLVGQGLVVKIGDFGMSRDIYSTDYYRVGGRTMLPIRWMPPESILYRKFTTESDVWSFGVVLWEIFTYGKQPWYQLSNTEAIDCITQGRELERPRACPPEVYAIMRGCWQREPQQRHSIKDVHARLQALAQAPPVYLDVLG

CN(c1ccn(C)n1)S(=O)(=O)NC(=O)c1cnc2ccc(N3C[C@@H](F)C[C@@H]3c3cc(F)ccc3O[C@@H]3CCOC3)cn12 [Example 92, 6-((2R,4S)-4-fluoro-2-(5-fluoro-2-(((R)-tetrahydrofuran-3-yl)oxy)phenyl)pyrrolidin-1-yl)-N—(N-methyl-N-(1-methyl-1H-pyrazol-3-yl)sulfamoyl)imidazo[1,2-a]pyridine-3-carboxamide] and CN(c1ccn(C)n1)S(=O)(=O)NC(=O)c1cnc2ccc(N3C[C@@H](F)C[C@@H]3c3cc(F)ccc3OC3CCOCC3)cn12 [Example 96, 6-((2R,4S)-4-fluoro-2-(5-fluoro-2-((tetrahydro-2H-pyran-4-yl)oxy)phenyl)pyrrolidin-1-yl)-N—(N-methyl-N-(1-methyl-1H-pyrazol-3-yl)sulfamoyl)imidazo[1,2-a]pyridine-3-carboxamide] cannot be ordered by IC50: ≤ 50 nM for the first, ≤ 50 nM for the second.

Cc1nnc(N(C)S(=O)(=O)NC(=O)c2cnc3ccc(N4C[C@@H](F)C[C@@H]4c4cc(F)ccc4O[C@@H]4CCOC4)cn23)s1 [Example 93, 6-((2R,4S)-4-fluoro-2-(5-fluoro-2-(((R)-tetrahydrofuran-3-yl)oxy)phenyl)pyrrolidin-1-yl)-N—(N-methyl-N-(5-methyl-1,3,4-thiadiazol-2-yl)sulfamoyl)imidazo[1,2-a]pyridine-3-carboxamide] and Cc1nnc(N(C)S(=O)(=O)NC(=O)c2cnc3ccc(N4C[C@@H](F)C[C@@H]4c4cc(F)ccc4OC4CCOCC4)cn23)s1 [Example 98, 6-((2R,4S)-4-fluoro-2-(5-fluoro-2-((tetrahydro-2H-pyran-4-yl)oxy)phenyl)pyrrolidin-1-yl)-N—(N-methyl-N-(5-methyl-1,3,4-thiadiazol-2-yl)sulfamoyl)imidazo[1,2-a]pyridine-3-carboxamide] cannot be ordered by IC50: ≤ 50 nM for the first, 50 to 100 nM for the second.

CC(C)(C)S(=O)(=O)NC(=O)c1cnc2ccc(N3C[C@@H](F)C[C@@H]3c3cc(F)ccc3OC3CCOCC3)cn12 [Example 94, N-(tert-butylsulfonyl)-6-((2R,4S)-4-fluoro-2-(5-fluoro-2-((tetrahydro-2H-pyran-4-yl)oxy)phenyl)pyrrolidin-1-yl)imidazo[1,2-a]pyridine-3-carboxamide] and CN(CC(C)(C)F)S(=O)(=O)NC(=O)c1cnc2ccc(N3C[C@@H](F)C[C@@H]3c3cc(F)ccc3OC3CCOCC3)cn12 [Example 110, 6-((2R,4S)-4-fluoro-2-(5-fluoro-2-((tetrahydro-2H-pyran-4-yl)oxy)phenyl)pyrrolidin-1-yl)-N—(N-(2-fluoro-2-methylpropyl)-N-methylsulfamoyl)imidazo[1,2-a]pyridine-3-carboxamide] cannot be ordered by IC50: 50 to 100 nM for the first, ≤ 50 nM for the second.

CCN(CC)S(=O)(=O)NC(=O)c1cnc2ccc(N3C[C@@H](F)C[C@@H]3c3cc(F)ccc3OC3CCOCC3)cn12 [Example 95, N—(N,N-diethylsulfamoyl)-6-((2R,4S)-4-fluoro-2-(5-fluoro-2-((tetrahydro-2H-pyran-4-yl)oxy)phenyl)pyrrolidin-1-yl)imidazo[1,2-a]pyridine-3-carboxamide] and CCN(CCF)S(=O)(=O)NC(=O)c1cnc2ccc(N3C[C@@H](F)C[C@@H]3c3cc(F)ccc3OC3CCOCC3)cn12 [Example 102, N—(N-ethyl-N-(2-fluoroethyl)sulfamoyl)-6-((2R,4S)-4-fluoro-2-(5-fluoro-2-((tetrahydro-2H-pyran-4-yl)oxy)phenyl)pyrrolidin-1-yl)imidazo[1,2-a]pyridine-3-carboxamide] cannot be ordered by IC50: ≤ 50 nM for the first, ≤ 50 nM for the second.

CN(c1nncs1)S(=O)(=O)NC(=O)c1cnc2ccc(N3C[C@@H](F)C[C@@H]3c3cc(F)ccc3OC3CCOCC3)cn12 [Example 97, 6-((2R,4S)-4-fluoro-2-(5-fluoro-2-((tetrahydro-2H-pyran-4-yl)oxy)phenyl)pyrrolidin-1-yl)-N—(N-methyl-N-(1,3,4-thiadiazol-2-yl)sulfamoyl)imidazo[1,2-a]pyridine-3-carboxamide] and CN(c1nccs1)S(=O)(=O)NC(=O)c1cnc2ccc(N3C[C@@H](F)C[C@@H]3c3cc(F)ccc3OC3CCOCC3)cn12 [Example 100, 6-((2R,4S)-4-fluoro-2-(5-fluoro-2-((tetrahydro-2H-pyran-4-yl)oxy)phenyl)pyrrolidin-1-yl)-N—(N-methyl-N-(thiazol-2-yl)sulfamoyl)imidazo[1,2-a]pyridine-3-carboxamide] cannot be ordered by IC50: ≤ 50 nM for the first, ≤ 50 nM for the second.

CN(CCF)S(=O)(=O)NC(=O)c1cnc2ccc(N3C[C@@H](F)C[C@@H]3c3cc(F)ccc3OC3CCOCC3)cn12 [Example 99, 6-((2R,4S)-4-fluoro-2-(5-fluoro-2-((tetrahydro-2H-pyran-4-yl)oxy)phenyl)pyrrolidin-1-yl)-N—(N-(2-fluoroethyl)-N-methylsulfamoyl)imidazo[1,2-a]pyridine-3-carboxamide] and CCCN(C)S(=O)(=O)NC(=O)c1cnc2ccc(N3C[C@@H](F)C[C@@H]3c3cc(F)ccc3O[C@@H]3CCOC3)cn12 [Example 101, 6-((2R,4S)-4-fluoro-2-(5-fluoro-2-(((R)-tetrahydrofuran-3-yl)oxy)phenyl)pyrrolidin-1-yl)-N—(N-methyl-N-propylsulfamoyl)imidazo[1,2-a]pyridine-3-carboxamide] cannot be ordered by IC50: ≤ 50 nM for the first, ≤ 50 nM for the second.

CN(c1ccccn1)S(=O)(=O)NC(=O)c1cnc2ccc(N3C[C@@H](F)C[C@@H]3c3cc(F)ccc3O[C@@H]3CCOC3)cn12 [Example 103, 6-((2R,4S)-4-fluoro-2-(5-fluoro-2-(((R)-tetrahydrofuran-3-yl)oxy)phenyl)pyrrolidin-1-yl)-N—(N-methyl-N-(pyridin-2-yl)sulfamoyl)imidazo[1,2-a]pyridine-3-carboxamide] and CN(c1ccccn1)S(=O)(=O)NC(=O)c1cnc2ccc(N3C[C@@H](F)C[C@@H]3c3cc(F)ccc3OC3CCOCC3)cn12 [Example 104, 6-((2R,4S)-4-fluoro-2-(5-fluoro-2-((tetrahydro-2H-pyran-4-yl)oxy)phenyl)pyrrolidin-1-yl)-N—(N-methyl-N-(pyridin-2-yl)sulfamoyl)imidazo[1,2-a]pyridine-3-carboxamide] cannot be ordered by IC50: ≤ 50 nM for the first, ≤ 50 nM for the second.

COCCN(C)S(=O)(=O)NC(=O)c1cnc2ccc(N3CCC[C@@H]3c3cc(F)ccc3O[C@@H]3CCOC3)cn12 [Example 105, 6-((R)-2-(5-fluoro-2-(((R)-tetrahydrofuran-3-yl)oxy)phenyl)pyrrolidin-1-yl)-N—(N-(2-methoxyethyl)-N-methylsulfamoyl)imidazo[1,2-a]pyridine-3-carboxamide] and CCCN(C)S(=O)(=O)NC(=O)c1cnc2ccc(N3CCC[C@@H]3c3cc(F)ccc3O[C@@H]3CCOC3)cn12 [Example 107, 6-((R)-2-(5-fluoro-2-(((R)-tetrahydrofuran-3-yl)oxy)phenyl)pyrrolidin-1-yl)-N—(N-methyl-N-propylsulfamoyl)imidazo[1,2-a]pyridine-3-carboxamide] cannot be ordered by IC50: ≤ 50 nM for the first, ≤ 50 nM for the second.

CN(C)S(=O)(=O)NC(=O)c1cnc2ccc(N3CCC[C@@H]3c3cc(F)ccc3O[C@@H]3CCOC3)cn12 [Example 106, N—(N,N-dimethylsulfamoyl)-6-((R)-2-(5-fluoro-2-(((R)-tetrahydrofuran-3-yl)oxy)phenyl)pyrrolidin-1-yl)imidazo[1,2-a]pyridine-3-carboxamide] and CN(C1CC1)S(=O)(=O)NC(=O)c1cnc2ccc(N3C[C@@H](F)C[C@@H]3c3cc(F)ccc3OC3CCOCC3)cn12 [Example 108, N—(N-cyclopropyl-N-methylsulfamoyl)-6-((2R,4S)-4-fluoro-2-(5-fluoro-2-((tetrahydro-2H-pyran-4-yl)oxy)phenyl)pyrrolidin-1-yl)imidazo[1,2-a]pyridine-3-carboxamide] cannot be ordered by IC50: ≤ 50 nM for the first, ≤ 50 nM for the second.
